Our source for the DC50 values is US20260001862A1, “QUINOXALINEDIONE AND PYRIDO[2,3-B]PYRAZINE-2,3-DIONE B CELL LYMPHOMA 6 (BCL6) DEGRADERS AND USES THEREOF” (DANA-FARBER CANCER INSTITUTE, INC., priority 2022, published 2026).

Bounds are passed on as bounds.

The assay has as its target T1, Endogenous BCL6 (Homo sapiens, UniProt P41182).
T1 construct: Endogenous BCL6 was tagged with the 11-amino acid SmBiT through CRISPR/Cas9 gene editing; endogenous in cells; host or cells: SU-DHL-4 (CRISPR/Cas9 knock-in single cell clone)
The experiment in a line: HiBiT cellular degradation assay in SU-DHL-4 cells. It counts as cell-based. Conditions: 24 hours of compound treatment, concentration to reach 50% degradation. As to the method: DC50 (concentration to reach 50% degradation) values were determined from a cellular degradation assay (HiBiT, Promega™) in Su-DHL-4 cells (Table 1). Endogenous BCL6 was tagged with the 11-amino acid SmBiT through CRISPR/Cas9 gene editing and single cell clone selection. After 24 hours of compound treatment, cells were lysed and incubated with LgBiT protein to reconstitute intact nanoluciferase. Substrate was then added and relative luciferase units were measured. Degradation levels for each treatment were taken as a percentage compared to the control, 100% DMSO (Prism).
In general terms: With HiBiT, luminescence reflects the tagged protein that the partner subunit can reach.
On to `C[C@@H]1CN(c2ncc(Cl)c(Nc3ccc4c(c3)n(CCC(=O)NCCN(C)C)c(=O)c(=O)n4C)n2)C[C@H](C)C1(F)F` [Compound 18], for which the DC50 was 0.45 µM. In other words, the sub-micromolar range.
`C[C@@H]1C[C@H](C)CN(c2ncc(Cl)c(Nc3ccc4c(c3)n(CC[C@@H](C)O)c(=O)c(=O)n4C)n2)C1` [Compound 107] displayed a DC50 of 0.047 µM.
Under `C[C@@H]1CN(c2ncc(Cl)c(Nc3ccc4c(c3)n(CCC(=O)NC3CCOC3)c(=O)c(=O)n4C)n2)C[C@H](C)C1(F)F` (stereo partly shown) [Compound 29] stands 0.071 µM; under `C[C@@H]1CN(c2ncc(Cl)c(Nc3ccc4c(c3)n(CCC(=O)NC3CCN(C)C3)c(=O)c(=O)n4C)n2)C[C@H](C)C1(F)F` (stereo partly shown) [Compound 9], 0.22 µM; under `CNC(=O)Cn1c(=O)c(=O)n(C)c2ccc(Nc3nc(N4C[C@@H](N)C(F)(F)[C@@H](C)C4)ncc3Cl)cc21` [Compound 87], 0.23 µM.
The molecule `C[C@@H]1CN(c2ncc(Cl)c(Nc3ccc4c(c3)n(CC[C@@H](C)O)c(=O)c(=O)n4C)n2)C[C@H](C)[C@@H]1F` [Compound 122] displayed a DC50 of 0.019 µM.
Under `C[C@@H]1CN(c2ncc(Cl)c(Nc3ccc4c(c3)n(CCC(=O)NCC3CCOC3)c(=O)c(=O)n4C)n2)C[C@H](C)C1(F)F` (stereo partly shown) [Compound 32] stands 0.15 µM; under `C[C@@H]1CN(c2ncc(Cl)c(Nc3ccc4c(c3)n(C[C@@H]3CNC(=O)O3)c(=O)c(=O)n4C)n2)C[C@H](C)[C@@H]1F` [Compound 117], 0.13 µM.
`C[C@@H]1CN(c2ncc(Cl)c(Nc3ccc4c(c3)n(CCC(=O)NCC3COC3)c(=O)c(=O)n4C)n2)C[C@H](C)C1(F)F` [Compound 31] showed a DC50 of 0.16 µM.
In turn, `CNC(=O)CCn1c(=O)c(=O)n(C)c2ccc(Nc3nc(N4C[C@H](CCN)C(F)(F)[C@H](C)C4)ncc3Cl)cc21` [Compound 80] displayed a 50% degradation concentration (DC50) of over 10 µM.
For the molecule `C[C@@H]1CN(c2nc(Nc3ccc4c(c3)n(CCC3(O)CC3)c(=O)c(=O)n4C)c(Cl)cc2C#N)C[C@H](C)[C@@H]1F` [Compound 119], the DC50 is 0.013 µM. This counts as double-digit nanomolar.
In the case of `CNC(=O)C(C)(C)Cn1c(=O)c(=O)n(C)c2ccc(Nc3nc(N4C[C@@H](C)C(F)(F)[C@@H](C)C4)ncc3Cl)cc21` [Compound 68] it was 0.1 µM.
In the case of `C[C@H](O)CCn1c(=O)c(=O)n(C)c2ccc(Nc3nc(N4C[C@@H](C)[C@@H](F)[C@@H](C)C4)ncc3Cl)cc21` [Compound 123] it was 0.023 µM; in that of `C[C@@H]1CN(c2ncc(Cl)c(Nc3ccc4c(c3)n(C[C@@H]3COC(=O)N3)c(=O)c(=O)n4C)n2)C[C@H](C)[C@@H]1F` [Compound 118], 0.12 µM.
In the case of `CNC(=O)CCn1c(=O)c(=O)n(C)c2ccc(Nc3nc(N4C[C@@H](N)C(F)(F)[C@@H](C)C4)ncc3Cl)cc21` [Compound 83] it was 0.92 µM; in that of `CNC(=O)[C@H]1C[C@@H](n2c(=O)c(=O)n(C)c3ccc(Nc4nc(N5C[C@@H](C)C(F)(F)[C@@H](C)C5)ncc4Cl)cc32)C1` [Compound 75-1], 0.29 µM; in that of `C[C@@H]1CN(c2ncc(Cl)c(Nc3ccc4c(c3)n(CC(=O)NC3CCN(C)C3)c(=O)c(=O)n4C)n2)C[C@H](C)C1(F)F` (stereo partly shown) [Compound 59], 0.97 µM.
In the case of `C[C@@H]1CN(c2ncc(Cl)c(Nc3ccc4c(c3)n(C[C@H]3C[C@H](O)C3)c(=O)c(=O)n4C)n2)C[C@H](C)C1F` (stereo partly shown) [Compound 108], it took 0.043 µM to reach half-maximal degradation (DC50).
In the case of `CNC(=O)Cn1c(=O)c(=O)n(C)c2ccc(Nc3nc(N4C[C@@H](C)C(F)(F)[C@@H](C)C4)ncc3Cl)cc21` [Compound 56, 2-(7-((5-chloro-2-((3R,5S)-4,4-difluoro-3,5-dimethylpiperidin-1-yl)pyrimidin-4-yl)amino)-4-methyl-2,3-dioxo-3,4-dihydroquinoxalin-1(2H)-yl)-N-methylacetamide] it was 0.014 µM; in that of `CNC(=O)CCn1c(=O)c(=O)n(C)c2ccc(Nc3nc(N4C[C@@H](CCN)C(F)(F)[C@@H](C)C4)ncc3Cl)cc21` [Compound 81], 0.25 µM; in that of `C[C@@H]1CN(c2ncc(Cl)c(Nc3ccc4c(c3)n(CCC3(O)CC3)c(=O)c(=O)n4C)n2)C[C@H](C)C1F` (stereo partly shown) [Compound 110], 0.018 µM.
Turning to `C[C@@H]1CN(c2ncc(Cl)c(Nc3ccc4c(c3)n(CCC(=O)NC3COC3)c(=O)c(=O)n4C)n2)C[C@H](C)C1(F)F` [Compound 28], the DC50 turned out to be 0.032 µM.
In the case of `CNC(=O)CCn1c(=O)c(=O)n(C)c2ccc(Nc3nc(N4C[C@H](CCO)C(F)(F)[C@H](C)C4)c(C#N)cc3Cl)cc21` [Compound 120] it was 1.9 µM.
In the case of `CNC(=O)CCn1c(=O)c(=O)n(C)c2ccc(Nc3nc(N4C[C@H](C)C[C@H](C)C4)ncc3Cl)cc21` [Compound 1, 3-(7-((5-chloro-2-((3S,5R)-3,5-dimethylpiperidin-1-yl)pyrimidin-4-yl)amino)-4-methyl-2,3-dioxo-3,4-dihydroquinoxalin-1(2H)-yl)-N-methylpropanamide] it was 0.025 µM; in that of `C[C@@H]1CN(c2ncc(Cl)c(Nc3ccc4c(c3)n(C[C@H]3C[C@@H](O)C3)c(=O)c(=O)n4C)n2)C[C@H](C)C1F` (stereo partly shown) [Compound 109], 0.004 µM; in that of `C[C@@H]1CN(c2ncc(Cl)c(Nc3ccc4c(c3)n(CCC(=O)NC3CN(C)C3)c(=O)c(=O)n4C)n2)C[C@H](C)C1(F)F` [Compound 8], over 10 µM.
For the molecule `C[C@@H]1CN(c2ncc(Cl)c(Nc3ccc4c(c3)n(CCC(=O)NCC3CCN(C)C3)c(=O)c(=O)n4C)n2)C[C@H](C)C1(F)F` (stereo partly shown) [Compound 12], half-maximal degradation (DC50) was put at 1.8 µM.
`C[C@@H]1CN(c2ncc(Cl)c(Nc3ccc4c(c3)n(CCC(=O)NCC3CN(C)C3)c(=O)c(=O)n4C)n2)C[C@H](C)C1(F)F` [Compound 11]: the DC50 was 3.1 µM.
In the case of `CNC(=O)Cn1c(=O)c(=O)n(C)c2ccc(Nc3nc(N4C[C@@H](C)C(F)(F)[C@@H](N)C4)ncc3Cl)cc21` [Compound 86] it was 0.12 µM; in that of `C[C@@H]1CN(c2ncc(Cl)c(Nc3ccc4c(c3)n(CC(=O)NCCN(C)C)c(=O)c(=O)n4C)n2)C[C@H](C)C1(F)F` [Compound 57], 0.34 µM.
As to `C[C@@H]1CN(c2ncc(Cl)c(Nc3ccc4c(c3)n(CCC(=O)NCCCN(C)C)c(=O)c(=O)n4C)n2)C[C@H](C)C1(F)F` [Compound 19], it took 0.5 µM to reach half-maximal degradation (DC50).
Under `C[C@@H]1CN(c2ncc(Cl)c(Nc3ccc4c(c3)n(CCC3(O)CCC3)c(=O)c(=O)n4C)n2)C[C@H](C)C1F` (stereo partly shown) [Compound 111] stands 0.034 µM; under `CNC(=O)CCn1c(=O)c(=O)n(C)c2ccc(Nc3nc(N4C[C@@H](C)C(F)(F)[C@@H](N)C4)ncc3Cl)cc21` [Compound 82], 0.084 µM.
In turn, `C[C@@H]1CN(c2ncc(Cl)c(Nc3ccc4c(c3)n(CCC3(O)COC3)c(=O)c(=O)n4C)n2)C[C@H](C)C1F` (stereo partly shown) [Compound 112] registered a DC50 of 0.025 µM.
Molecule `CNC(=O)CCn1c(=O)c(=O)n(C)c2ccc(Nc3nc(N4C[C@@H](O)C(F)(F)[C@@H](C)C4)ncc3Cl)cc21` [Compound 85] gave a DC50 of 0.094 µM.
In the case of `C[C@@H]1CN(c2ncc(Cl)c(Nc3ccc4c(c3)n(CCC(=O)NCC(C)(C)O)c(=O)c(=O)n4C)n2)C[C@H](C)C1(F)F` [Compound 73] it was 0.13 µM; in that of `CNC(=O)CCn1c(=O)c(=O)n(C)c2ccc(Nc3nc(N4C[C@@H](CCO)C(F)(F)[C@@H](C)C4)c(C#N)cc3Cl)cc21` [Compound 121], 0.071 µM; in that of `C[C@@H]1CN(c2ncc(Cl)c(Nc3ccc4c(c3)n(CC(=O)NC3CCN(C)CC3)c(=O)c(=O)n4C)n2)C[C@H](C)C1(F)F` [Compound 60], 1.12 µM.
Under `CNC(=O)[C@H]1C[C@H](n2c(=O)c(=O)n(C)c3ccc(Nc4nc(N5C[C@@H](C)C(F)(F)[C@@H](C)C5)ncc4Cl)cc32)C1` [Compound 75-2] stands 0.1 µM; under `C[C@@H]1CN(c2ncc(Cl)c(Nc3ccc4c(c3)n(CC(=O)NC3CN(C)C3)c(=O)c(=O)n4C)n2)C[C@H](C)C1(F)F` [Compound 58], 0.87 µM.

Usually DC50 stands for the midpoint of the concentration-degradation curve. The low end stands for a more potent degrader, the high end for a less potent degrader.
